Experimental data taken from ChEMBL document CHEMBL1152352, “Identification of a chromone-based retinoid containing a polyolefinic side chain via facile synthetic routes” (Bioorg Med Chem Lett, 2009).

Tests used:
[1] = molecular target: T1, Retinoic acid receptor alpha (Homo sapiens, UniProt P10276); assay: Displacement of radioligand from RARalpha receptor
T1 sequence (P10276 whole entry): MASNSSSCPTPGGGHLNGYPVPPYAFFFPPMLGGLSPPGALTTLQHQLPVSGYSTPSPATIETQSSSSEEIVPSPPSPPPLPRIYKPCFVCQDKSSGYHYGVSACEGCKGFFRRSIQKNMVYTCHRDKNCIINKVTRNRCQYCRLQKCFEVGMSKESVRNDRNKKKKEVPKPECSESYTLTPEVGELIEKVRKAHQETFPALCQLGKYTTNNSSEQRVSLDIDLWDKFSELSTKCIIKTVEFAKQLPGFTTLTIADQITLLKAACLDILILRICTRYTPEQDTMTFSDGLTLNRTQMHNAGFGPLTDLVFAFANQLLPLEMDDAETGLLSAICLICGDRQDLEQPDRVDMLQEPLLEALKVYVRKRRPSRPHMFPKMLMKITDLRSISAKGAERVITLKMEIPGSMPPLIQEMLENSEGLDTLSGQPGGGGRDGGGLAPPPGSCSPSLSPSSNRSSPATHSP

[2] = molecular target: T2, Retinoic acid receptor gamma (Homo sapiens, UniProt P13631); assay: Displacement of radioligand from RARgamma receptor
T2 sequence (P13631 whole entry): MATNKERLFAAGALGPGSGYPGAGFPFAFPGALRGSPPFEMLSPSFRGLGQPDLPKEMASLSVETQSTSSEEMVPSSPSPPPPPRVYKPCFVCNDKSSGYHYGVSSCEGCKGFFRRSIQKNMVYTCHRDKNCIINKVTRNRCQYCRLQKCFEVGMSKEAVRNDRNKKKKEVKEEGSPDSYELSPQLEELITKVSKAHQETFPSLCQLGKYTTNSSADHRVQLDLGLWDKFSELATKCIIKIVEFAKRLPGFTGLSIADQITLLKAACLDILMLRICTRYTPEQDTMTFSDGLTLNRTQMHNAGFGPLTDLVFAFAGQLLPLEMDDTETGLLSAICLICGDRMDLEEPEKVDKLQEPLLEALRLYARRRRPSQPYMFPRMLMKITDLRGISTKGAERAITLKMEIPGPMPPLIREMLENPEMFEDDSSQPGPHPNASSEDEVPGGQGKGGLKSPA

[3] = molecular target: T3, Retinoic acid receptor beta (Homo sapiens, UniProt P10826); assay: Displacement of radioligand from RARbeta receptor
T3 sequence (P10826 whole entry): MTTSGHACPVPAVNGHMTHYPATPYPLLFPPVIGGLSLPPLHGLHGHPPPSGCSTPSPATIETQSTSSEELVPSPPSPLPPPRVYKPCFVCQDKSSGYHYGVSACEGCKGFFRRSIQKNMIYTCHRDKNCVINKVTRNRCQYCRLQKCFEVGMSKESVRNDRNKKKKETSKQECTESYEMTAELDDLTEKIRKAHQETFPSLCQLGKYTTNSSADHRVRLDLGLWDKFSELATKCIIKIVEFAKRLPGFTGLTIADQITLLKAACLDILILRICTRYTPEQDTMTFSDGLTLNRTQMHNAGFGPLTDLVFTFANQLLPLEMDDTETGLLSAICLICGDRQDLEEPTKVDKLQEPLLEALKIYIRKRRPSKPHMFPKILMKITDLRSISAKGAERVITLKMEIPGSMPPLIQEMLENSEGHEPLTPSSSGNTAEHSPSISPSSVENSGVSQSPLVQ

IC50 [1]: 15 nM
IC50 [2]: 40 nM
IC50 [3]: 40 nM
SMILES: CC(=C\c1coc2cc3c(cc2c1=O)C(C)(C)CCC3(C)C)/C=C(\C)C(=O)O
